According to patent US4421685A, “Process for producing an insulin” (Eli Lilly and Company, priority 1981, dated 1983):

Key:
insulin receptor = insulin receptor (Homo sapiens, UniProt P06213); assay: insulin radioreceptor assay; assay type: binding
Text: (§1) Moreover, the product can be assayed for purity and activity by recognized methods such as polyacrylamide gel electrophoresis, amino acid analysis, insulin radioreceptorassay, insulin radioimmunoassay, high performance liquid chromatography (HPLC), ultraviolet spectrum, dansylation, rabbit blood glucose assay, and the like.
After acidification to pH 3.15 with glacial acetic acid, a portion of this solution was gel filtered on a 1.5×90 cm. column of Sephadex G-50 (Superfine) equilibrated and eluted with 1 M acetic acid at 4°-8° C. The [N-formyl-Gly^1 A] human insulin peak (elution volume 87-95 ml.) was pooled, aliquotted and lyophilized. This protein was judged to be quite clean by HPLC and amino acid analysis. The bioactivity of [N-formyl-Gly^1 -A] human insulin evaluated by radioreceptor assay was 17% relative to a human insulin standard.

rabbit blood glucose = assay: USP rabbit assay (rabbit blood glucose assay); assay type: in vivo; details: 144 rabbits; zinc insulin crystals redissolved in 0.01 N HCl
Text: as §1
The resulting human insulin preparation was judged to be quite pure by polyacrylamide gel electrophoresis (a single band), amino acid analysis, insulin radioreceptorassay, insulin radioimmunoassay, HPLC, dansylation and UV spectrum. […] (anhydrous).

insulin receptor, sequence (P06213 28-758 limits assumed): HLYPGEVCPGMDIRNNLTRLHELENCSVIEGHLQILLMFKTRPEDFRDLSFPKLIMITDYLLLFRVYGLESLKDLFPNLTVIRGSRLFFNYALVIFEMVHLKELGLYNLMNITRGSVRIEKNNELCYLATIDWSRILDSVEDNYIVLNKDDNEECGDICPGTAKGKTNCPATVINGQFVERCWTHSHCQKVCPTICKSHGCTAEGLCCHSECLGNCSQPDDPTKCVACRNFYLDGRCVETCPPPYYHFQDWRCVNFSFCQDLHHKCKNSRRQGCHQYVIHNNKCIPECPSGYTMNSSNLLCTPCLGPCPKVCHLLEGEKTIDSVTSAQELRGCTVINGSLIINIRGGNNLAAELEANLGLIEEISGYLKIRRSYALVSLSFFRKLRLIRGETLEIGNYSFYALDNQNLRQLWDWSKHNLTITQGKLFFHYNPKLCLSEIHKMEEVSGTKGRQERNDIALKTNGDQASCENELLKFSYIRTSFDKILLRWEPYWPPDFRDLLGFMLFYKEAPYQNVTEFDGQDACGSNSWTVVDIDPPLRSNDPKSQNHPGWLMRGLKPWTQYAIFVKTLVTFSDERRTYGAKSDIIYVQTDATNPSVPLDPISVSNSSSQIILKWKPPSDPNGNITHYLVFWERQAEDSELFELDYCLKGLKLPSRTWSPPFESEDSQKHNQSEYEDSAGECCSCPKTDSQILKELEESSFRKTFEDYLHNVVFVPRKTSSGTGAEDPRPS
insulin receptor, sequence (P06213 763-1382 partner limits assumed): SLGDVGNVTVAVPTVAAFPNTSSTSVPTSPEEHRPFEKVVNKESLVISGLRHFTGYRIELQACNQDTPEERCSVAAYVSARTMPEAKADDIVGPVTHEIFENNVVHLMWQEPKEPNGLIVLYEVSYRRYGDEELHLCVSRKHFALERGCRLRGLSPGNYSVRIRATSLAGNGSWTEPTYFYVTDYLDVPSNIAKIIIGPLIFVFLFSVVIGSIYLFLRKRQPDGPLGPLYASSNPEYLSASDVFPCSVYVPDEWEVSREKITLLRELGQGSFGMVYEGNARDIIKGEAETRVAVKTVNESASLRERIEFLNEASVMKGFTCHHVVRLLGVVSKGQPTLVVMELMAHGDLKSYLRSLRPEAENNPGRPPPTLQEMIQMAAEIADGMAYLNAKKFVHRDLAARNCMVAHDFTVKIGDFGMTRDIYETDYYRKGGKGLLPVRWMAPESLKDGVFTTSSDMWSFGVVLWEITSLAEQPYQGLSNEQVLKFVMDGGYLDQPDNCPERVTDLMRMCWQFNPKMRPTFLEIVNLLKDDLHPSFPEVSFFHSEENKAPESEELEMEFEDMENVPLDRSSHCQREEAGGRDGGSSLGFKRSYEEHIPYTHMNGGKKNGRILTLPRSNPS

[N-formyl-Gly^1 -A] human insulin
bioactivity evaluated by radioreceptor assay relative to a human insulin standard (insulin receptor): 17%

human insulin
potency, USP rabbit assay (rabbit blood glucose): 26.3±1.8 units per mg. (anhydrous)
